# According to patent publication US11780830B2, “Triazolone derivatives or salts thereof and pharmaceutical compositions comprising the same” (YUHAN CORPORATION, priority 2018, dated 2023):
# Counter-ions that a name gives are not always drawn.
# What was measured:
# Type in all cases: biochemical
# [1] = molecular target: T1, recombinant human MAO-A (monoamine oxidase-A) (Homo sapiens, UniProt P21397); assay: Activity on recombinant human MAO-A, method similar to the VAP-1 assay; conditions: substrate 0.5 mM tyramine; read-out: Inhibitory Activity (IC50, nM) MAO-A
# T1 construct: purchased Sigma-Aldrich
# T1 sequence (P21397 1-527): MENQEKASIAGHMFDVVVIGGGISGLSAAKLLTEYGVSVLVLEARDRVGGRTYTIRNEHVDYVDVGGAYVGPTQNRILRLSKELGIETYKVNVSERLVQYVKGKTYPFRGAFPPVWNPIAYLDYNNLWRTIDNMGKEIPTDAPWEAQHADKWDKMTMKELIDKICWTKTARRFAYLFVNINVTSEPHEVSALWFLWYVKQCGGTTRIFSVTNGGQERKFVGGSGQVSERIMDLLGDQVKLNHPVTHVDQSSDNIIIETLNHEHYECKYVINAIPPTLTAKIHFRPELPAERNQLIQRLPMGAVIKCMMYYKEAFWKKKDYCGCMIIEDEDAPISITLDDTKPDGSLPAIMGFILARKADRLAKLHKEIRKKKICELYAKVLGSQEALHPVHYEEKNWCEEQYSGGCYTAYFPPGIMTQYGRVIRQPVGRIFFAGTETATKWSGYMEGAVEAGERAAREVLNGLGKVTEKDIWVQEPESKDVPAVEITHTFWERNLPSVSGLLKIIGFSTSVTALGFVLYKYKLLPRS
# In short: (§1)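 8-point, 1:3 dose-response, four-parameter logistic IC50 from reduction in fluorescence rate versus DMSO control. HRP/Amplex Red detection of H2O2 (ex 544, em 590 nm) after 30 min, 37 °C compound–enzyme preincubation in pH 7.4 phosphate buffer. MAO-A substrate: 0.5 mM tyramine; MAO-B: 1 mM benzylamine.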
# [2] = molecular target: T2, recombinant human DAO (diamine oxidase) (Homo sapiens, UniProt P19801); assay: Activity on recombinant human DAO, method similar to the VAP-1 assay; conditions: substrate 1 mM putrescine; read-out: Inhibitory Activity (IC50, nM) DAO
# T2 construct: purchased R&D systems
# T2 sequence (P19801 20-751): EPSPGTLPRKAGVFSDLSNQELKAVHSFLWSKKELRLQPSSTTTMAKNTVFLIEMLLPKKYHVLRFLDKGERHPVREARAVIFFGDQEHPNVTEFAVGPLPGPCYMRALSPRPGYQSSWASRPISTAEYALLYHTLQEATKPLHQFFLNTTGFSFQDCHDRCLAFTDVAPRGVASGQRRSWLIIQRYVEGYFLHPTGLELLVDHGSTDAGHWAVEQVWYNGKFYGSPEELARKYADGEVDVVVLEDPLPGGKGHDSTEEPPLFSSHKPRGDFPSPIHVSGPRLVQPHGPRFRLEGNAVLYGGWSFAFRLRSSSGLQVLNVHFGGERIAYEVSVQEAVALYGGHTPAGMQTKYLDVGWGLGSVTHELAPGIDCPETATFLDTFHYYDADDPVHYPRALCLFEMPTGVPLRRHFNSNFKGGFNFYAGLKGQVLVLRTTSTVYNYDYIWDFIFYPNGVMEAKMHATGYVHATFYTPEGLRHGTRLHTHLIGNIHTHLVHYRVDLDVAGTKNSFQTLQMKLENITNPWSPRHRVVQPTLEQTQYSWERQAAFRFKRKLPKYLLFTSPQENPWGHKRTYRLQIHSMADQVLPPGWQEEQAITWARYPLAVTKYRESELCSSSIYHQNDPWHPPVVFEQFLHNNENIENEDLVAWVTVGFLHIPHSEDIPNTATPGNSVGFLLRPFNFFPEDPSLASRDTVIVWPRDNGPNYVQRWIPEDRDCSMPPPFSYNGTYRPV
# In short: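 Inhibition of recombinant human diamine oxidase (DAO, R&D systems) was assessed by the same approach as the VAP-1 assay, using 1 mM putrescine as substrate. Hydrogen peroxide formed was detected through an HRP-coupled Amplex Red reaction yielding fluorescent resorufin, read at 544 nm excitation and 590 nm emission. IC50 values came from four-parameter logistic fitting in GraphPad Prism.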
# [3] = molecular target: T3, recombinant human MAO-B (monoamine oxidase-B) (Homo sapiens, UniProt P27338); assay: Activity on recombinant human MAO-B, method similar to the VAP-1 assay; conditions: substrate 1 mM benzylamine; read-out: Inhibitory Activity (IC50, nM) MAO-B
# T3 construct: purchased Sigma-Aldrich
# T3 sequence (P27338 1-520): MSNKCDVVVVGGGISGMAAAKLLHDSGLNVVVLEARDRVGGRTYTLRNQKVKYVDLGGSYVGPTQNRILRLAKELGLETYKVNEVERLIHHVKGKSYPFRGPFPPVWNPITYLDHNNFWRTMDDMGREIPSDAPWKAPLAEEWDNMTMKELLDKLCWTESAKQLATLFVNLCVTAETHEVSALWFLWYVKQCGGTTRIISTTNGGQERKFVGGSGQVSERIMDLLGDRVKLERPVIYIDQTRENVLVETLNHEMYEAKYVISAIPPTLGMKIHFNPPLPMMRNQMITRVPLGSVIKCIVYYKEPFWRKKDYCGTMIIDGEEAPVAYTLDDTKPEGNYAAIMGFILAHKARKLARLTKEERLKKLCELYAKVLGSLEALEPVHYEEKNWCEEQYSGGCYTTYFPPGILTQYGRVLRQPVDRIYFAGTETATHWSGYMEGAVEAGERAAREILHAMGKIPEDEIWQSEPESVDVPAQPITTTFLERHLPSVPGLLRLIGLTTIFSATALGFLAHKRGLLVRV
# In short: as §1
# recombinant human VAP-1 = molecular target: T4, recombinant human VAP-1 (Homo sapiens, UniProt Q16853); assay: Activity on recombinant human VAP-1, HRP-coupled Amplex Red hydrogen peroxide assay; conditions: substrate 1 mM benzylamine; compound incubated with enzyme at 37° C. for 30 minutes; pH 7.4; read-out: Inhibitory Activity (IC50, nM) human VAP-1
# T4 construct: purchased R&D systems
# T4 sequence (Q16853 1-763): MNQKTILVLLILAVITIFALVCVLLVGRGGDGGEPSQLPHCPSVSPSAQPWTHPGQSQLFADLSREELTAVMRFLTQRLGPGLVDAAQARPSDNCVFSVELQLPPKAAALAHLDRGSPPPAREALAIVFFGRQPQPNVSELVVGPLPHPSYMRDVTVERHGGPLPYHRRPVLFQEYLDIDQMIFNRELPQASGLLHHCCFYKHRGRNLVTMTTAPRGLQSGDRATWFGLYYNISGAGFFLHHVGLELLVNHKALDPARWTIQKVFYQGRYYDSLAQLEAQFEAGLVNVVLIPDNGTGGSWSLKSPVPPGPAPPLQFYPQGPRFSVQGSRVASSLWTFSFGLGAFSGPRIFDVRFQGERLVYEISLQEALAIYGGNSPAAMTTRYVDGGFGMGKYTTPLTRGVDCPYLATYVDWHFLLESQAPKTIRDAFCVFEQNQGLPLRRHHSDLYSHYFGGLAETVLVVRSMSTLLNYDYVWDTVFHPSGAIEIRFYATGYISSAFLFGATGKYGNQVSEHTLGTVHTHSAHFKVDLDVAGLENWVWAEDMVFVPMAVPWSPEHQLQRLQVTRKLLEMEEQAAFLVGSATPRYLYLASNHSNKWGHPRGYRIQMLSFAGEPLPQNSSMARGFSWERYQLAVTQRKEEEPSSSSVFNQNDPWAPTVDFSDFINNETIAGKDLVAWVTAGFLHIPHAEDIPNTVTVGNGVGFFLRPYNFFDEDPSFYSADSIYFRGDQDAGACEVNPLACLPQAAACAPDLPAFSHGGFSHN
# In short: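 Compounds were preincubated with purified enzyme in 50 mM sodium phosphate pH 7.4 at 37 °C for 30 min, then 200 uM Amplex Red, 1 mM benzylamine and 1 U/mL HRP were added. Resorufin fluorescence (ex 544/em 590 nm) was followed over 1-2 h; IC50 came from 4-parameter fits of signal-rate inhibition.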
IC50 [1] [nM],IC50 [2] [nM],IC50 [3] [nM],IC50 (recombinant human VAP-1) [nM],Structure (SMILES)
28000,230,380,0.4,"CC1Oc2ccc(-c3ccc(Cn4cnn(C/C(=C/F)CN)c4=O)s3)cc2NC1=O (stereo not drawn) [Example 97, 6-[5-[[1-[(E)-2-(aminomethyl)-3-fluoro-allyl]-5-oxo-1,2,4-triazol-4-yl]methyl]-2-thienyl]-2-methyl-4H-1,4-benzoxazin-3-one hydrochloride]"
> 100000,200,530,0.4,"CC1(C)Oc2ccc(-c3ccc(Cn4cnn(C/C(=C/F)CN)c4=O)s3)cc2NC1=O [Example 98, 6-[5-[[1-[(E)-2-(aminomethyl)-3-fluoro-allyl]-5-oxo-1,2,4-triazol-4-yl]methyl]-2-thienyl]-2,2-dimethyl-4H-1,4-benzoxazin-3-one]"
> 100000,140,810,0.1,"NC/C(=C\F)Cn1ncn(Cc2ccc(-c3ccc4c(c3)NC(=O)OC4)s2)c1=O [Example 100, 7-[5-(1-[(2E)-2-(aminomethyl)-3-fluoroprop-2-en-1-yl]-5-oxo-1,5-dihydro-4H-1,2,4-triazol-4-ylmethyl)thiophen-2-yl]-1,4-dihydro-2H-3,1-benzoxazin-2-one hydrochloride]"
> 100000,900,540,0.2,"NC/C(=C\F)Cn1ncn(Cc2ccc(-c3ccc4c(c3)COC(=O)N4)s2)c1=O [Example 101, 6-[5-(1-[(2E)-2-(aminomethyl)-3-fluoroprop-2-en-1-yl]-5-oxo-1,5-dihydro-4H-1,2,4-triazol-4-ylmethyl)thiophen-2-yl]-1,4-dihydro-2H-3,1-benzoxazin-2-one hydrochloride]"
> 100000,760,480,0.2,"Cc1c(-c2ccc(Cn3cnn(C/C(=C/F)CN)c3=O)s2)ccc2c1COC(=O)N2 [Example 102, 6-[5-[[1-[(E)-2-(aminomethyl)-3-fluoro-allyl]-5-oxo-1,2,4-triazol-4-yl]methyl]-2-thienyl]-5-methyl-1,4-dihydro-3,1-benzoxazin-2-one]"
15000,1100,1500,3.2,"CN1CCOc2cc(-c3ccc(Cn4cnn(C/C(=C/F)CN)c4=O)s3)ccc21 [Example 103, 2-[(2E)-2-(aminomethyl)-3-fluoroprop-2-en-1-yl]-4-[5-(4-methyl-3,4-dihydro-2H-1,4-benzoxazin-7-yl)thiophen-2-yl]methyl-2,4-dihydro-3H-1,2,4-triazol-3-one hydrochloride]"
4000,390,1200,1.1,"CN1CCNc2cc(-c3ccc(Cn4cnn(C/C(=C/F)CN)c4=O)s3)ccc21 [Example 104, 2-[(E)-2-(aminomethyl)-3-fluoro-allyl]-4-[[5-(1-methyl-3,4-dihydro-2H-quinoxalin-6-yl)-2-thienyl]methyl]-1,2,4-triazol-3-one]"
38400,8500,420,1.8,"NC/C(=C\F)Cn1ncn(Cc2ccc(-c3ccc4c(c3)NCCO4)s2)c1=O [Example 105, 2-[(E)-2-(aminomethyl)-3-fluoro-allyl]-4-[[5-(3,4-dihydro-2H-1,4-benzoxazin-6-yl)-2-thienyl]methyl]-1,2,4-triazol-3-one]"
11000,2500,250,0.8,"NC/C(=C\F)Cn1ncn(Cc2ccc(-c3ccc4c(c3F)NCCO4)s2)c1=O [Example 106, 2-[(E)-2-(aminomethyl)-3-fluoro-allyl]-4-[[5-(5-fluoro-3,4-dihydro-2H-1,4-benzoxazin-6-yl)-2-thienyl]methyl]-1,2,4-triazol-3-one]"
18000,960,320,1.5,"NC/C(=C\F)Cn1ncn(Cc2ccc(-c3cc4c(cc3F)OCCN4)s2)c1=O [Example 107, 2-[(E)-2-(aminomethyl)-3-fluoro-allyl]-4-[[5-(7-fluoro-3,4-dihydro-2H-1,4-benzoxazin-6-yl)-2-thienyl]methyl]-1,2,4-triazol-3-one]"
21000,250,3200,0.8,"Cc1c(-c2ccc(Cn3cnn(C/C(=C/F)CN)c3=O)s2)ccc2c1NCCO2 [Example 108, 2-[(E)-2-(aminomethyl)-3-fluoro-allyl]-4-[[5-(5-methyl-3,4-dihydro-2H-1,4-benzoxazin-6-yl)-2-thienyl]methyl]-1,2,4-triazol-3-one]"
25300,2540,104,2.7,"NC/C(=C\F)Cn1ncn(Cc2ccc(-c3ccc4c(c3)CCCO4)s2)c1=O [Example 109, 2-[(2E)-2-(aminomethyl)-3-fluoroprop-2-en-1-yl]-4-[5-(3,4-dihydro-2H-chromen-6-yl)thiophen-2-yl]methyl-2,4-dihydro-3H-1,2,4-triazol-3-one hydrochloride]"
